The record followed here is patent US9340809B2, “Microbial conversion of sugar acids and means therein” (VALTION […] TUTKIMUSKESUS, priority 2005, dated 2016).

Assay [1] addresses T1, L-galactonic acid dehydratase (Trichoderma reesei, UniProt Q0QWS4).
T1 construct: made in house; host or cells: Saccharomyces cerevisiae strain H3350 (DSM 17214), crude yeast extract
T1 sequence (Q0QWS4 1-450): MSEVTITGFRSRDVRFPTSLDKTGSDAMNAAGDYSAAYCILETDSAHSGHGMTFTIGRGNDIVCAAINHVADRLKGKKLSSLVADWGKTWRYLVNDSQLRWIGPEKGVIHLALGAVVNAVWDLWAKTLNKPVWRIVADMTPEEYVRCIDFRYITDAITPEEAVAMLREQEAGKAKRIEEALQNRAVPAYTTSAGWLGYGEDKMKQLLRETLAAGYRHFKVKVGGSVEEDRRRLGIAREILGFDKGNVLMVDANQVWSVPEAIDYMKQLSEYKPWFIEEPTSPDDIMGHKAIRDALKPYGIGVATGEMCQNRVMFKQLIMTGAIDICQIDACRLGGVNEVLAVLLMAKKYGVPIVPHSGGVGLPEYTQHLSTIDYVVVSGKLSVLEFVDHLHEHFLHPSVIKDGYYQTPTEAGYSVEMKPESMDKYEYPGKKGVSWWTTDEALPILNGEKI
Kind of assay: specificity test of L-galactonic acid dehydratase in yeast extract of strain H3350, formation of reducing sugars. The class given is biochemical, Hypocrea jecorina (Trichoderma reesei). The settings on record: yeast extract of S. cerevisiae strain H3350 expressing lgd1; formation of reducing sugars followed. The text has this:
The resulting vector was then transformed to a strain of Saccharomyces cerevisiae. The resulting S. cerevisiae strain was then disintegrated by vortexing with glass beads and the yeast extract analyzed for L-galactonic acid dehydratase activity. To assay the L-galactonic acid dehydratase activity L-galactonic acid was mixed with the yeast extract and formation of reducing sugars followed using standard protocols. (Bernfeld, P. (1955) “Amylases, α and β,” In: Methods In Enzymology, vol. 1, Colovick S. P., Kaplan, N. O. (eds.) Academic Press NY, pp 149-158).
To test the specificity of the enzyme the yeast extract as described before was mixed with the sugar acids D-gluconic acid, D-arabonic acid, D-xylonic acid, L-gulonic acid and L-galactonic acid. We followed the formation of reducing sugars as described in the example 1.

The target of assay [2] is T1, L-galactonic acid dehydratase. Briefly: conversion of L-galactonic acid by yeast extract of strain H3350, product quantified as 2-keto-3-deoxy sugar acid in a chemical assay. The class given is biochemical, Hypocrea jecorina (Trichoderma reesei). The conditions noted are these: after 21 hours; protein concentration of yeast extract 0.15 g/l; initial L-galactonic acid concentration 10 mM. Here is the method: L-galactonic acid was mixed with the yeast extract of strain H3350 as described in example 1. The reaction product was identified as a 2-keto-3-deoxy sugar acid in a chemical assay and quantified as described by Buchanan et al. (1999) Biochem. J., 343:563-570. The protein concentration of the yeast extract in the reaction medium was 0.15 g/l and the initial L-galactonic acid concentration 10 mM. After 21 hours 1.04 mM of L-threo-3-deoxy-hexulosonic acid was formed.

Turning to `O=C(O)[C@H](O)[C@@H](O)[C@H](O)CO` [D-xylonic acid], in assay [1], the “enzyme activity with the sugar acid as substrate” value (shortened to “enzyme activity”) was “does not exhibit activity”.
The same measure, in the same setting: then `O=C(O)[C@H](O)[C@@H](O)[C@H](O)[C@H](O)CO` [D-gluconic acid], with “does not exhibit activity”.
Take `O=C(O)[C@@H](O)[C@H](O)[C@H](O)CO` [D-arabonic acid]: in assay [1], the “enzyme activity” value was “Activity was observed”.
As for `O=C(O)[C@@H](O)[C@H](O)[C@H](O)[C@@H](O)CO` [L-galactonic acid], the L-threo-3-deoxy-hexulosonic acid formed in assay [2] stood at 1.04 mM. The “enzyme activity” value in assay [1] is listed as “Activity was observed”.
